Reference: ChEMBL document CHEMBL5038624, “Construction and activity evaluation of novel dual-target (SE/CYP51) anti-fungal agents containing amide naphthyl structure” (Eur J Med Chem, 2022)
≈ marks a conversion by molar mass, not a printed value.

How the values were obtained:
Candida albicans [1] = test: Antifungal activity against Candida albicans SC5314 assessed as reduction in fungal growth incubated for 72 hrs by CLSI protocol based broth microdilution method; format: functional
Candida tropicalis = test: Antifungal activity against Candida tropicalis ATCC 1369 assessed as reduction in fungal growth incubated for 72 hrs by CLSI protocol based broth microdilution method; format: functional
Aspergillus fumigatus = test: Antifungal activity against Aspergillus fumigatus KM8001 assessed as reduction in fungal growth incubated for 72 hrs by CLSI protocol based broth microdilution method; format: functional
Pichia kudriavzevii = test: Antifungal activity against Candida krusei ATCC 6258 assessed as reduction in fungal growth incubated for 72 hrs by CLSI protocol based broth microdilution method; format: functional
Nakaseomyces glabratus = test: Antifungal activity against Candida glabrata ATCC 0001 assessed as reduction in fungal growth incubated for 72 hrs by CLSI protocol based broth microdilution method; format: functional
Candida albicans [2] = test: Antifungal activity against Candida albicans strain 901 assessed as reduction in fungal growth incubated for 72 hrs by CLSI protocol based broth microdilution method; format: functional
Candida albicans [3] = test: Induction of apoptosis against Candida albicans ATCC SC5314 assessed as necrotic cells measured after 48 hrs by Annexin V-FITC/propidium iodide staining based flow cytometry (reference value: 18.22 %); format: functional
Candida albicans [4] = test: Inhibition of SE/CYP51 in Candida albicans ATCC SC5314 assessed as eburicol level incubated for 48 hrs by LC/MS analysis; design: scale not given: the % may be the effect or the level left
Candida albicans [5] = test: Inhibition of SE/CYP51 in Candida albicans ATCC SC5314 assessed as squalene level incubated for 48 hrs by LC/MS analysis; design: scale not given: the % may be the effect or the level left
Candida albicans [6] = test: Induction of apoptosis against Candida albicans ATCC SC5314 assessed as mild apoptotic cells measured after 48 hrs by Annexin V-FITC/propidium iodide staining based flow cytometry (Rvb =0.29 %); format: functional
Candida albicans [7] = test: Inhibition of SE/CYP51 in Candida albicans ATCC SC5314 assessed as ergosterol level incubated for 48 hrs by LC/MS analysis; design: scale not given: the % may be the effect or the level left
Candida albicans [8] = test: Inhibition of SE/CYP51 in Candida albicans ATCC SC5314 assessed as unknown sterol level incubated for 48 hrs by LC/MS analysis; design: scale not given: the % may be the effect or the level left
Candida albicans [9] = test: Antifungal activity against Candida albicans strain 632 assessed as reduction in fungal growth incubated for 72 hrs by CLSI protocol based broth microdilution method; format: functional
Candida albicans [10] = test: Antifungal activity against Candida albicans strain CaR assessed as reduction in fungal growth incubated for 72 hrs by CLSI protocol based broth microdilution method; format: functional
Candida albicans [11] = test: Antifungal activity against Candida albicans strain 904 assessed as reduction in fungal growth incubated for 72 hrs by CLSI protocol based broth microdilution method; format: functional
Candida albicans [12] = test: Antifungal activity against Candida albicans strain 17 assessed as reduction in fungal growth incubated for 72 hrs by CLSI protocol based broth microdilution method; format: functional
Candida albicans [13] = test: Induction of apoptosis against Candida albicans ATCC SC5314 assessed as late apoptotic cells measured after 48 hrs by Annexin V-FITC/propidium iodide staining based flow cytometry (reference value: 0.71 %); format: functional
Candida albicans [14] = test: Induction of apoptosis against Candida albicans ATCC SC5314 assessed as viable cells measured after 48 hrs by Annexin V-FITC/propidium iodide staining based flow cytometry (reference value: 80.78 %); format: functional
[15] = Inhibition of SE in Candida albicans ATCC SC5314 measured after 30 mins by HPLC analysis
Candida albicans [16] = test: Inhibition of SE/CYP51 in Candida albicans ATCC SC5314 assessed as lanosterol level incubated for 48 hrs by LC/MS analysis; design: scale not given: the % may be the effect or the level left

SMILES	MIC50 (Candida albicans [1]) [µg/mL]	MIC50 (Candida tropicalis) [µg/mL]	MIC50 (Aspergillus fumigatus) [µg/mL]	MIC50 (Pichia kudriavzevii) [µg/mL]	MIC50 (Nakaseomyces glabratus) [µg/mL]	other results
O=C(/C=C/c1cccc2ccccc12)NCc1ccccc1	8 (≈ 27.8 µM)					
O=C(/C=C/c1ccc2ccccc2c1)NC(C(=O)NCc1cccnc1)c1ccccc1 (configuration not stated)	2 (≈ 4.74 µM)	2 (≈ 4.74 µM)	> 8	1 (≈ 2.37 µM)	0.5 (≈ 1.19 µM)	
O=C(/C=C/c1cccc2ccccc12)NC(C(=O)NCc1ccncc1)c1ccccc1 (configuration not stated)	2 (≈ 4.74 µM)	2 (≈ 4.74 µM)	> 8	4 (≈ 9.49 µM)	0.5 (≈ 1.19 µM)	
O=C(NC(Cn1ccnc1)c1ccccc1)c1cccc2ccccc12 (configuration not stated)	0.5 (≈ 1.46 µM)	0.5 (≈ 1.46 µM)	> 8	1 (≈ 2.93 µM)	1 (≈ 2.93 µM)	
O=C(/C=C/c1ccc2ccccc2c1)NC(Cn1ccnc1)C(=O)c1ccccc1 (configuration not stated)	0.5 (≈ 1.26 µM)	0.25 (≈ 0.632 µM)	> 8	0.5 (≈ 1.26 µM)	0.25 (≈ 0.632 µM)	
CN(C/C=C/c1ccccc1)Cc1cccc2ccccc12 [NAFTIFINE]	0.5 (≈ 1.74 µM)	0.5 (≈ 1.74 µM)	4 (≈ 13.9 µM)	0.25 (≈ 0.87 µM)	0.5 (≈ 1.74 µM)	MIC50 (Candida albicans [2]): > 8 µg/mL; Activity (Candida albicans [3]): 60.92%; Activity (Candida albicans [4]): 5.2%; Activity (Candida albicans [5]): 49.5%; Activity (Candida albicans [6]): 0.05%; Activity (Candida albicans [7]): 24.3%; Activity (Candida albicans [8]): 5.8%; MIC50 (Candida albicans [9]): 4 µg/mL (≈ 13.9 µM); MIC50 (Candida albicans [10]): > 8 µg/mL; MIC50 (Candida albicans [11]): 4 µg/mL (≈ 13.9 µM); MIC50 (Candida albicans [12]): 4 µg/mL (≈ 13.9 µM); Activity (Candida albicans [13]): 0.49%; Activity (Candida albicans [14]): 38.54%; IC50 [15]: 469 nM; Activity (Candida albicans [16]): 15.2%
O=C(/C=C/c1ccc2ccccc2c1)NC(Cn1ccnc1)c1ccccc1 (configuration not stated)	0.5 (≈ 1.36 µM)	0.5 (≈ 1.36 µM)	4 (≈ 10.9 µM)	1 (≈ 2.72 µM)	0.5 (≈ 1.36 µM)	
NC(=O)/C=C/c1cccc2ccccc12	32 (≈ 162 µM)					

Now from value to molecule, other results behind:

MIC50 (Candida albicans [1]) [µg/mL]	MIC50 (Candida tropicalis) [µg/mL]	MIC50 (Aspergillus fumigatus) [µg/mL]	MIC50 (Pichia kudriavzevii) [µg/mL]	MIC50 (Nakaseomyces glabratus) [µg/mL]	SMILES	other results
0.5 (≈ 1.23 µM)	0.5 (≈ 1.23 µM)	4 (≈ 9.82 µM)	0.5 (≈ 1.23 µM)	1 (≈ 2.45 µM)	O=C(/C=C/c1cccc2ccccc12)NC(C(=O)Nc1cccnc1)c1ccccc1 (configuration not stated)	
0.25 (≈ 0.73 µM)	0.125 (≈ 0.365 µM)	> 8	0.5 (≈ 1.46 µM)	2 (≈ 5.84 µM)	O=C(NC(Cn1cncn1)c1ccccc1)c1cccc2ccccc12 (configuration not stated)	
0.5 (≈ 1.23 µM)	0.5 (≈ 1.23 µM)	2 (≈ 4.91 µM)	0.5 (≈ 1.23 µM)	0.5 (≈ 1.23 µM)	O=C(/C=C/c1ccc2ccccc2c1)NC(C(=O)Nc1ccncc1)c1ccccc1 (configuration not stated)	
0.25 (≈ 0.675 µM)	0.25 (≈ 0.675 µM)	4 (≈ 10.8 µM)	1 (≈ 2.7 µM)	0.5 (≈ 1.35 µM)	O=C(NC(Cn1cncn1)C(=O)c1ccccc1)c1ccc2ccccc2c1 (configuration not stated)	
0.125 (≈ 0.338 µM)	0.5 (≈ 1.35 µM)	> 8	0.5 (≈ 1.35 µM)	0.25 (≈ 0.677 µM)	O=C(NC(Cn1ccnc1)C(=O)c1ccccc1)c1ccc2ccccc2c1 (configuration not stated)	
0.25 (≈ 0.632 µM)	0.5 (≈ 1.26 µM)	> 8	1 (≈ 2.53 µM)	0.5 (≈ 1.26 µM)	O=C(/C=C/c1cccc2ccccc12)NC(Cn1ccnc1)C(=O)c1ccccc1 (configuration not stated)	
